Results from patent US9242993B2, “Morpholino substituted bicyclic pyrimidine urea or carbamate derivatives as mTOR inhibitors” (CELLZOME LIMITED, priority 2011, dated 2016).

How the values were obtained:
[1] = system: S6RP serine-240/244 phosphorylation; assay: In vitro phospho-S6 cellular assay; type: cell-based; settings: Homo sapiens; HEK293T/17 cells, 2 hours; read-out: pS6 inhibition value (IC50), activity level
Description: Activation of mTOR signaling results in phosphorylation of several downstream targets. In cells, mTOR exists in two different protein complexes. The mTOR Complex-1 (mTORC1) phosphorylates and activates S6 Kinase 1 (S6K1) and S6 Kinase 2 (S6K2) (also known as p70S6K) which then phosphorylate S6 Ribosomal Protein (S6RP) (also known as RPS6)3. S6RP is phosphorylated on serine 235, serine 236, serine 240 and serine 244 by both pS6K1 and pS6K2. The mTOR Complex-2 (mTORC2) phosphorylates AKT on serine 473 which activates the AKT signaling pathway.
The assay measures a test compound's inhibition of S6RP serine-240/244 phosphorylation and inhibition of Akt serine-473 phosphorylation in human embryonic kidney derived HEK293T/17 cells (ATCC CRL-11268).
The HEK293T/17 cell line is maintained in DMEM media (Invitrogen catalogue number 41965-039) supplemented with 10% FCS at 37° C. in a 5% CO2 humidified incubator.
Cells are seeded in 96-well plates at 40,000 cells/well (pS6RP S240/244 assay) or 80,000 cells/well (pAkt S473 assay) in 90 μl growth media (DMEM, 2% FCS). Plates are incubated for 1 hour in a humidified incubator to allow the cells to adhere. Cells are treated with 8 concentrations of test compounds or DMSO alone for controls (final DMSO concentration 0.1%) and incubated at 37° C. for 2 hours. Then 20 μl of 5× concentrated lysis buffer (750 mM NaCl, 100 mM Tris pH7.4, 5 mM ADTA, 5 mM EGTA, 5% Triton X-100) is added, plates are sealed and incubated for 15 minutes at 4° C. with gentle shaking. After cell lysis, 25 μl cell lysate is transferred to a MesoScale plate coated with an antibody to pS6RP Ser240/244 (MesoScale Discovery K150DGD-3) or an antibody to pAkt Ser 473 (MesoScale Discovery K151DGD-3). Plates have been blocked before by incubation with 150 μl MesoScale Discovery Blocking Solution-A for 1 hour at room temperature followed by washing with 150 μl 1× Tris wash buffer per well. After the transfer of the cell lysate to the MSD plate, the pS6RP (or pAkt) protein is captured on the coated antibody by incubation at room temperature for 1 hour with gentle shaking. After the capture step the plate is washed three times with 150 μl of 1× Tris wash buffer per well. Then 25 μl detection antibody conjugated with a Sulfo-Tag is added and incubated for 1 hour at room temperature with gentle shaking. Subsequently the antibody solution is removed and the plate is washed 3 times with 150 μl 1× Tris wash buffer per well and 150 μl Read buffer is added. The plates are analysed on a MSD 2400 Plate Reader (MesoScale Discovery). Data analysis is performed using nonlinear regression for a sigmoidal dose-response with a variable slope.

[2] = system: IFNγ release in whole blood; assay: In vitro human whole blood assay (IFNγ release); type: cell-based; settings: αCD3/αCD28 and IL-2 stimulation, 18 hours, read-out: WB inhibition value (pIC50) (converted)
Protocol: This assay measures IFNγ release in whole blood after αCD3/αCD28 and IL-2 treatment. The whole blood contains circulating T lymphocytes; αCD3/αCD28 stimulation mimics antigen receptor signalling, resulting in epigenetic changes to the IFNG gene locus, such that when IL-2 is added, IFNγ is produced.
Human whole blood, with Na-heparin as the anticoagulant, is obtained from Clinical Trials Laboratory Services. Blood is diluted 1.4 times with RPMI 1640 (Lonza, BE12-167F) and 175 μl/well is distributed in a low evaporation 96-well plates (Falcon, BD Labware, 353072). Blood is treated with 10 concentrations of test compounds or DMSO alone for controls (final DMSO concentration 0.2%) and incubated at 37° C. for 1 hour. Blood is then stimulated with 1 μg/ml αCD3 (R&D Systems, MAB100), 1 μg/ml αCD28 (BD Pharmingen, 555725) and IL-2 at 10 ng/ml (Peprotech, 200-02). Blood is then left to incubate at 37° C. for 18 hours. After, plates are spun at 250 g for 5 minutes to pellet blood cells and 25 μl of plasma is transferred to a MesoScale plate coated with an antibody to IFNγ (MesoScale Discovery K151AEC-2) containing 25 μl/well MesoScale Discovery Blocking Solution-2. Plates have been blocked by incubating with 25 μl/well MesoScale Discovery Blocking Solution-2 for 30 minutes at room temperature. After the transfer of sera to the MSD plate, the IFNγ protein is captured on the coated antibody by incubation at room temperature for 2 hour with gentle shaking. After the capture step the plate is washed three times with 150 μl/well of 1×PBS-Tween wash buffer and 25 μl/well detection antibody conjugated with a Sulfo-Tag is added and incubated for 2 hours at room temperature with gentle shaking. Subsequently the antibody solution is removed and the plate is washed 3 times with 150 μl/well 1×PBS-Tween wash buffer and 150 μl/well MesoScale Discovery Read buffer is added. The plates are analysed on a MSD 2400 Plate Reader (MesoScale Discovery). Data analysis is performed using nonlinear regression for a sigmoidal dose-response with a variable slope.

mTOR = mTOR (Homo sapiens, UniProt P42345); assay: biochemical

IC50 [1] [nM]	IC50 [2] [nM]	IC50 (mTOR) [nM]	Structure (SMILES)
< 100	100	< 100	CCNC(=O)Nc1ccc(-c2nc3c(c(N4CCOC[C@@H]4C)n2)[C@@H](C)S(=O)(=O)C3)cc1 [Example 39, 1-ethyl-3-(4-((R)-5-methyl-4-((S)-3-methylmorpholino)-6,6-dioxido-5,7-dihydrothieno[3,4-d]pyrimidin-2-yl)phenyl)urea]
< 100	1000	< 100	CCNC(=O)Nc1ccc(-c2nc3c(c(N4CCOC[C@@H]4C)n2)C(C)S(=O)(=O)C3)cc1F (stereo partly drawn) [Example 50, 1-ethyl-3-(2-fluoro-4-(5-methyl-4-((S)-3-methylmorpholino)-6,6-dioxido-5,7-dihydrothieno[3,4-d]pyrimidin-2-yl)phenyl)urea]
< 100	200	< 100	CNC(=O)Nc1ccc(-c2nc(N3CCOC[C@@H]3C)c3c(n2)C(C)(C)S(=O)(=O)C3C)cc1 (stereo partly drawn) [Example 77, 1-methyl-3-(4-(5,7,7-trimethyl-4-((S)-3-methylmorpholino)-6,6-dioxido-5,7-dihydrothieno[3,4-d]pyrimidin-2-yl)phenyl)urea]
< 100	100	< 100	CC[C@H]1COCCN1c1nc(-c2ccc(NC(=O)NC)cc2)nc2c1C(C)S(=O)(=O)C2(C)C (stereo partly drawn) [Example 80, 1-(4-(4-((S)-3-ethylmorpholino)-5,7,7-trimethyl-6,6-dioxido-5,7-dihydrothieno[3,4-d]pyrimidin-2-yl)phenyl)-3-methylurea]
< 100	251	100 to 1000	C[C@@H]1COCCN1c1nc(-c2ccc(NC(=O)NC3CC3)cc2)nc2c1[C@H](C)S(=O)(=O)C2 [Example 63, 1-cyclopropyl-3-(4-((S)-5-methyl-4-((R)-3-methylmorpholino)-6,6-dioxido-5,7-dihydrothieno[3,4-d]pyrimidin-2-yl)phenyl)urea]
< 100	2000	< 100	CC1c2c(nc(-c3ccc(NC(=O)NCC4CC4)cc3)nc2N2CCOC[C@@H]2C)CS1(=O)=O (stereo partly drawn) [Example 46, 1-(cyclopropylmethyl)-3-(4-(5-methyl-4-((S)-3-methylmorpholino)-6,6-dioxido-5,7-dihydrothieno[3,4-d]pyrimidin-2-yl)phenyl)urea]
< 100	251	< 100	CCNC(=O)Nc1ccc(-c2nc(N3CCOC[C@@H]3C)c3c(n2)C(C)(C)S(=O)(=O)C3C)cc1 (stereo partly drawn) [Example 42, 1-ethyl-3-(4-(5,7,7-trimethyl-4-((S)-3-methylmorpholino)-6,6-dioxido-5,7-dihydrothieno[3,4-d]pyrimidin-2-yl)phenyl)urea]
< 100	200	< 100	C[C@@H]1COCCN1c1nc(-c2ccc(NC(=O)NC3CC3)cc2)nc2c1CS(=O)(=O)C2(C)C [Example 54, (R)-1-cyclopropyl-3-(4-(7,7-dimethyl-4-(3-methylmorpholino)-6,6-dioxido-5,7-dihydrothieno[3,4-d]pyrimidin-2-yl)phenyl)urea]
< 100	631	< 100	CC[C@H]1COCCN1c1nc(-c2ccc(NC(=O)NC)cc2F)nc2c1C(C)S(=O)(=O)C2(C)C (stereo partly drawn) [Example 79, 1-(4-(4-((S)-3-ethylmorpholino)-5,7,7-trimethyl-6,6-dioxido-5,7-dihydrothieno[3,4-d]pyrimidin-2-yl)-3-fluorophenyl)-3-methylurea]
< 100	200	< 100	CCNC(=O)Nc1ccc(-c2nc3c(c(N4CCOC[C@@H]4C)n2)[C@H](C)S(=O)(=O)C3)cc1 [Example 40, 1-ethyl-3-(4-((S)-5-methyl-4-((S)-3-methylmorpholino)-6,6-dioxido-5,7-dihydrothieno[3,4-d]pyrimidin-2-yl)phenyl)urea]
< 100	398	< 100	CCCNC(=O)Nc1ccc(-c2nc3c(c(N4CCOC[C@@H]4C)n2)C(C)S(=O)(=O)C3)cc1 (stereo partly drawn) [Example 45, 1-(4-(5-methyl-4-((S)-3-methylmorpholino)-6,6-dioxido-5,7-dihydrothieno[3,4-d]pyrimidin-2-yl)phenyl)-3-propylurea]
< 100	126	< 100	CC1c2c(N3CCOC[C@@H]3C)nc(-c3ccc(NC(=O)NCCF)cc3)nc2C(C)(C)S1(=O)=O (stereo partly drawn) [Example 75, 1-(2-fluoroethyl)-3-(4-(5,7,7-trimethyl-4-((S)-3-methylmorpholino)-6,6-dioxido-5,7-dihydrothieno[3,4-d]pyrimidin-2-yl)phenyl)urea]
< 100	158	< 100	CCNC(=O)Nc1ccc(-c2nc3c(c(N4CCOC[C@@H]4C)n2)C(C)S(=O)(=O)C3)cc1 (stereo partly drawn) [Example 38, 1-ethyl-3-(4-(5-methyl-4-((S)-3-methylmorpholino)-6,6-dioxido-5,7-dihydrothieno[3,4-d]pyrimidin-2-yl)phenyl)urea]
< 100	39.8	< 100	CC1c2nc(-c3ccc(NC(=O)NC4CC4)cc3)nc(N3CCOC[C@@H]3C)c2C(C)S1(=O)=O (stereo partly drawn) [Example 44, 1-cyclopropyl-3-(4-(5,7-dimethyl-4-((S)-3-methylmorpholino)-6,6-dioxido-5,7-dihydrothieno[3,4-d]pyrimidin-2-yl)phenyl)urea]
< 100	631	< 100	CCNC(=O)Nc1ccc(-c2nc(N3CCOCC3)c3c(n2)C(C)(C)S(=O)(=O)C3)cc1 [Example 76, 1-(4-(7,7-dimethyl-4-morpholino-6,6-dioxido-5,7-dihydrothieno[3,4-d]pyrimidin-2-yl)phenyl)-3-ethylurea]
< 100	200	< 100	CCC1c2c(nc(-c3ccc(NC(=O)NC4CC4)cc3)nc2N2CCOC[C@@H]2C)CS1(=O)=O (stereo partly drawn) [Example 49, 1-cyclopropyl-3-(4-(5-ethyl-4-((S)-3-methylmorpholino)-6,6-dioxido-5,7-dihydrothieno[3,4-d]pyrimidin-2-yl)phenyl)urea]
< 100	501	< 100	CNC(=O)Nc1ccc(-c2nc(N3CCOC[C@@H]3C)c3c(n2)C(C)(C)S(=O)(=O)C3C)c(F)c1 (stereo partly drawn) [Example 78, 1-(3-fluoro-4-(5,7,7-trimethyl-4-((S)-3-methylmorpholino)-6,6-dioxido-5,7-dihydrothieno[3,4-d]pyrimidin-2-yl)phenyl)-3-methylurea]
